Tests used:
Type in all cases: biochemical
KLKB1 [1] = target: T1, KLKB1 (Homo sapiens (Human), UniProt P03952); experiment: Inhibition of KLKB1 in kaolin activated human PPP
Procedure: Evaluation of the Inhibition of KLKB1 in Kaolin Activated Human PPP
Platelet poor plasma (PPP) obtained from human wholeblood, anticoagulated with Na-Citrat, was incubated with various concentrations of the test compound together with either 25, 75, 250, or 750 μg/mL kaolin in assay buffer for 20 min at 37° C. such that for each kaolin dose used a concentration response was obtained for the test compound.
(§1) The number of the compound corresponds to the number of the Example in the experimental section.

KLKB1 [2] = target: T1, KLKB1; experiment: Inhibition of KLKB1 using an endpoint assay (fluorogenic substrate H-Pro-Phe-Arg-AMC)
Procedure: (§2) The ability of compounds of formula (I) to inhibit plasma kallikrein (KLKB1), Factor XIIa (FXIIa), Factor XIa (FXIa), Factor Xa (FXa), Factor IIa (alpha-thrombin; FIIa), plasmin, trypsin, tissue kallikrein 1 (KLK1), Factor Vila (FVIIa), or FVIIa complexed with Tissue Factor, phospholipids and CaCl2 (FVIIa/TF/PL/CaCl2) was determined using the following biochemical assays in assay buffer (100 mM Tris, 150 mM NaCL, adjusted to a pH of 7.8 with HCl, and containing 0.1% (w/v) BSA and 0.05% (v/v) Tween20) in the presence of 1% (v/v) DMSO:
Evaluation of the Inhibition of KLKB1 Using an Endpoint Assay
Human KLKB1 (0.01 U/mL; Enzyme Research Laboratories) or rat KLKB1 (0.625 nM; produced in-house) was incubated for 1 h at room temperature with 0.10 μM fluorogenic substrate H-Pro-Phe-Arg-AMC (11295 from Bachem) and various concentrations of the test compound in assay buffer. Subsequently, PPACK 11 (Calbiochem) was added as a stop solution to achieve a final concentration of 1 μM and fluorescence was measured using an Envision Reader (PerkinElmer) with the wavelength excitation setting of 355 nm and the wavelength emission setting of 460 nm.
as §1

KLKB1 [3] = target: T1, KLKB1; experiment: Inhibition of KLKB1 (Ki), kinetic assay; conditions: 24° C., 0.25 mM H-Pro-Phe-Arg-AMC; IC50 corrected for KM of substrate
Procedure: as §2
Evaluation of the Inhibition of KLKB1 (Ki)
Measurements were performed in a kinetic interval every 2nd minute for 16 min using a Spectramax M5 (Molecular Devices) with the following settings of the wavelength excitation of 350 nm and wavelength emission of 450 nm.
as §1
Calculation of pIC50 and Pki Values
The pIC50 values were then fitted using a four-parametric fitting procedure using GraphPad Prism (version 6; GraphPad Software, Inc.).
Where the IC50 is in molar and the KM value in mM.

KLKB1 [4] = target: T1, KLKB1; experiment: Inhibition of human KLKB1 in dextran sulfate activated human PPP
Procedure: Evaluation of the Inhibition of Human KLKB1 in Dextran Sulfate Activated Human PPP
Platelet poor plasma (PPP) obtained from human wholeblood, anticoagulated with EDTA, was activated with 12.5 μg/mL dextransulfate for 7 min on ice. The activated PPP was incubated with various concentrations of the test compound in assay buffer. Afterwards the mixture was incubated at 24° C. with 0.25 mM fluorogenic substrate H-Pro-Phe-Arg-AMC (11295 from Bachem) and measurements were performed in a kinetic interval every 2nd minute for 16 min using a Spectramax M5 (Molecular Devices) with the following settings of the wavelength excitation of 350 nm and wavelength emission of 450 nm.
as §1

T1 sequence (P03952 391-638 limits assumed): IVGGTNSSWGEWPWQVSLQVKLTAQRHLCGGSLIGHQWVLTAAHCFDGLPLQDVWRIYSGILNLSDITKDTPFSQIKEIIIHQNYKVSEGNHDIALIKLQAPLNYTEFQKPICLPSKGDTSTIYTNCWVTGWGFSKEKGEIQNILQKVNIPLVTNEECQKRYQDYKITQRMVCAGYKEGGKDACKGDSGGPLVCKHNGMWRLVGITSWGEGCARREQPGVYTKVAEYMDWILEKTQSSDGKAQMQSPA
T1 sequence (P03952 20-390 partner limits assumed): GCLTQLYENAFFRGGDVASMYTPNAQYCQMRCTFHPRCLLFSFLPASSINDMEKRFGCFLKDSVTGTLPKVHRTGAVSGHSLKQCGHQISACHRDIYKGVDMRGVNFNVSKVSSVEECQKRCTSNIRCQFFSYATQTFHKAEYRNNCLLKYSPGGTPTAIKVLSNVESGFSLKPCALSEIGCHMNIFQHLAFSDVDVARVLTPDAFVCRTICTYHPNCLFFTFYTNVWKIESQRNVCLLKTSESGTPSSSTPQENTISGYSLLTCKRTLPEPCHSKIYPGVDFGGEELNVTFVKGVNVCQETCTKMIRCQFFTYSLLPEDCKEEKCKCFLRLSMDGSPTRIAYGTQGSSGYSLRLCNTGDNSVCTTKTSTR

| Compound | IC50 (KLKB1 [1]) | IC90 (KLKB1 [1]) | IC50 (KLKB1 [2]) | Ki (KLKB1 [3]) | IC50 (KLKB1 [4]) | IC50 (KLKB1 [1]; human platelet poor plasma (Na-Citrat), 25, 75, 250 or 750 μg/mL kaolin, global fit, read-out: IC50) | IC50 (KLKB1 [2]; endpoint assay, 1 h at room temperature, 0.10 μM H-Pro-Phe-Arg-AMC, read-out: IC50) | IC50 (KLKB1 [4]; human platelet poor plasma (EDTA) activated with 12.5 μg/mL dextransulfate, 24° C., read-out: IC50) |
| --- | --- | --- | --- | --- | --- | --- | --- | --- |
| Cc1nc(N2CC3CC3C2)ccc1Cn1cc(C(=O)N[C@@H]2CCc3c2ccnc3N)cn1 (stereo partly drawn) [Example 1, N-[(5R)-1-Amino-5H,6H,7H-cyclopenta[c]pyridin-5-yl]-1-[(6-{3-azabicyclo[3.1.0]hexan-3-yl}-2-methylpyridin-3-yl)methyl]-1H-pyrazole-4-carboxamide] | 19 nM | 199 nM | 0.5 nM | 0.3 nM | 54.1 nM |  |  |  |
| Cc1nc(N2CC3C(C2)C3(F)F)ccc1Cn1cc(C(=O)N[C@@H]2CCc3c2ccnc3N)cn1 (stereo partly drawn) [Example 9, N-[(5R)-1-Amino-5H,6H,7H-cyclopenta[c]pyridin-5-yl]-1-[(6-{6,6-difluoro-3-azabicyclo[3.1.0]hexan-3-yl}-2-methylpyridin-3-yl)methyl]-1H-pyrazole-4-carboxamide] |  | 89.5 nM |  | 0.4 nM |  | 14 nM | 0.6 nM | 18.1 nM |

Source: patent US10501440B2, “Heteroarylcarboxamide derivatives as plasma kallikrein inhibitors” (Boehringer Ingelheim International GmbH, priority 2017, dated 2019)
